Structures can show the parent of a compound that is named as a salt.
Tested on: rats
Assay: Analgesic activity in rats, light beam on tip of tail (modified D'Amour and Smith procedure)
Format: in vivo, rat
Conditions: for ED50: Rattus norvegicus
Description: Rats weighing approximately 150 to 200 g. are placed in individual holders, and each holder in turn is situated so that a high intensity light beam shines on the tip of the tail. The intensity of the light beam is adjusted so that normal rats respond by moving their tails out of the light beam in 3 to 8 seconds. The average of two readings taken 20 minutes apart serves as a pre-drug control. Rats are selected for use whose control readings agree within 1 second. Compounds are administered and reaction times are measured every 20 minutes for 2 hours. Analgesic agents cause a significant increase in reaction time.

For `CN(C)C(c1cccc(O)c1)[C@H]1CCCC[C@H]1O` (relative stereo) [1-cis-2-(α-dimethylamino-m-hydroxybenzyl)cyclohexanol], the “No. Rats Showing Analgesia/No. Rats Tested” value (I.M., 0.41 mg/kg) was 4/10, the “No. Rats Showing Analgesia/No. Rats Tested” value (I.M., 0.62 mg/kg) was 7/10 and the “No. Rats Showing Analgesia/No. Rats Tested” value (I.P., 3.12 mg/kg) was 8/10. For the same compound, the “No. Rats Showing Analgesia/No. Rats Tested” value (I.P., 6.25 mg/kg) was 6/10, the “No. Rats Showing Analgesia/No. Rats Tested” value (P.O., 3.12 mg/kg) was 5/10 and the “No. Rats Showing Analgesia/No. Rats Tested” value (P.O., 6.25 mg/kg) was 7/10.

`CN1CC[C@]23c4c5ccc(O)c4O[C@H]2[C@@H](O)C=C[C@H]3[C@H]1C5` [morphine, reference compound] gave an ED50 (im) of 2 mg/kg, an ED50 (ip) of 3.5 mg/kg and an ED50 (po) of 10 mg/kg.

For `CN(C)C(c1ccccc1)[C@H]1CCCC[C@H]1O` (relative stereo) [Cis-2-[α-Dimethylaminobenzyl]-Cyclohexanol], the “No. Rats Showing Analgesia/No. Rats Tested” value (I.M., 6.25 mg/kg) was 8/10, the “No. Rats Showing Analgesia/No. Rats Tested” value (I.P., 6.25 mg/kg) was 9/10 and the “No. Rats Showing Analgesia/No. Rats Tested” value (I.P., 12.5 mg/kg) was 8/10. The “No. Rats Showing Analgesia/No. Rats Tested” value (P.O., 5.0 mg/kg) was 6/10.

In the case of `COc1cccc(C([C@H]2CCCC[C@H]2O)N(C)C)c1` (relative stereo) [cis-2-(α-dimethylamino-m-methoxybenzyl)cyclohexanol], the “No. Rats Showing Analgesia/No. Rats Tested” value (I.P., 25.0 mg/kg) is reported as 3/5.

For `CCC(=O)O[C@@H]1CCCC[C@@H]1C(c1cccc(OC)c1)N(C)C.Cl` (relative stereo) [Cis-2-[α-Dimethylamino-m-Methoxybenzyl]Cyclohexanol Propionate, Hydrochloride], the “No. Rats Showing Analgesia/No. Rats Tested” value (I.M., 15.0 mg/kg) was 3/10 and the “No. Rats Showing Analgesia/No. Rats Tested” value (I.P., 12.5 mg/kg) was 3/5.

In the case of `CN(C)C(c1cccc(O)c1)[C@H]1CCCC[C@H]1O` (stereo partly drawn) [Cis-2-(α-Dimethylamino-m-Hydroxybenzyl) Cyclohexanol, Hydrochloride], the “No. Rats Showing Analgesia/No. Rats Tested” value (I.M., 2.5 mg/kg) is reported as 5/10, the “No. Rats Showing Analgesia/No. Rats Tested” value (I.P., 3.12 mg/kg) is reported as 3/5 and the “No. Rats Showing Analgesia/No. Rats Tested” value (I.P., 12.5 mg/kg) is reported as 4/5. For the same compound, the “No. Rats Showing Analgesia/No. Rats Tested” value (P.O., 5.0 mg/kg) was 5/10.

With `COCOc1cccc(C([C@H]2CCCC[C@H]2O)N(C)C)c1` (relative stereo) [cis-2-[α-dimethylamino-m-(methoxymethoxy)benzyl]cyclohexanol] the “No. Rats Showing Analgesia/No. Rats Tested” value (I.M., 2.5 mg/kg) was 3/10, the “No. Rats Showing Analgesia/No. Rats Tested” value (I.M., 5.0 mg/kg) was 5/10 and the “No. Rats Showing Analgesia/No. Rats Tested” value (I.P., 6.25 mg/kg) was 2/5. The “No. Rats Showing Analgesia/No. Rats Tested” value (I.P., 25.0 mg/kg) was 5/5.

Reference: patent US4017637A, “Benzylamine analgesics” (priority 1975, dated 1977)
